“Also recorded” adds a separate entry of the source. Where only a bound is given, the exact number is not on record here.

The record followed here is patent publication US8883826B2, “Alkynyl derivatives as modulators of metabotropic glutamate receptors” (Addex Pharma SA, priority 2004, dated 2014).

The target of one series is T1, mGluR5 (Rattus norvegicus, UniProt P31424).
T1 construct: tissue Charles River Laboratories; host or cells: rat brain cortex membranes (Sprague-Dawley)
Nature of the series: mGluR5 binding assay ([3H]-MPEP radioligand competition). The note with it: competition with 3 nM [3H]-MPEP, rat brain cortical membranes, 1 h at 4 °C; mean of at least three independent experiments in duplicate. In a few lines: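 Rat cortical membranes (50 μg) were incubated 1 h at 4 °C with 3 nM [3H]-MPEP and compound (0.003 nM-30 μM, 8 points) in HEPES buffer pH 7.4 with Mg2+, Ca2+ and NaCl. 30 μM MPEP defined non-specific binding, and bound label was counted after filtration. IC50 came from non-linear regression, as the mean of ≥3 experiments run in duplicate.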
A general note: Loss of bound radioactivity is the signal in a displacement assay; it reports binding, not function.

For another series, the system named is Male C57BL6/j mice. The experiment in a line: Marble burying model of anxiety. Type of series: in vivo, mouse. The note with it: 50 mg/kg po, 60 minutes prior to test, n=10/group, t (1, 18)=3.92. The source says:
Marble Burying Model of Anxiety
Marble burying behavior in mice is reduced by compounds which are efficacious anxiolytics in humans. Thus, marble burying in mice has been used as a model for the prediction of anxiolytic-like effects of compounds (Millan, M. J. et al., Neuropharmacology, 42:677-684 (2002)).
Selective negative allosteric modulators (allosteric antagonists) of the metabotropic glutamate receptor subtype 5 (mGluR5) have been shown previously to reduce marble burying in mice (Spooren, W. P. et al., Journal of Pharmacology and Experimental Therapeutics, 295:1267-1275 (2000)). […] Such compounds may be useful in the treatment of anxiety and related disorders.
The present studies were performed in accordance with the animal care and use policies of Addex Pharmaceuticals and the EEC directives on the protection of animals used for experimental and other scientific purposes (86/609/EEC and subsequent revisions). […]
The effect of compounds on marble burying in mice was tested. […] After removal of the mice from the test cages, the number of marbles buried was counted. […]
Statistical analyses were performed using GraphPad PRISM version 4.01 statistical software (GraphPad, San Diego, Calif., USA). Data were analyzed using one-way analysis of variance (ANOVA) followed by Bonferroni-corrected multiple comparisons, or t tests if only 2 groups were present. […]

T1 sequence (P31424 21-1203): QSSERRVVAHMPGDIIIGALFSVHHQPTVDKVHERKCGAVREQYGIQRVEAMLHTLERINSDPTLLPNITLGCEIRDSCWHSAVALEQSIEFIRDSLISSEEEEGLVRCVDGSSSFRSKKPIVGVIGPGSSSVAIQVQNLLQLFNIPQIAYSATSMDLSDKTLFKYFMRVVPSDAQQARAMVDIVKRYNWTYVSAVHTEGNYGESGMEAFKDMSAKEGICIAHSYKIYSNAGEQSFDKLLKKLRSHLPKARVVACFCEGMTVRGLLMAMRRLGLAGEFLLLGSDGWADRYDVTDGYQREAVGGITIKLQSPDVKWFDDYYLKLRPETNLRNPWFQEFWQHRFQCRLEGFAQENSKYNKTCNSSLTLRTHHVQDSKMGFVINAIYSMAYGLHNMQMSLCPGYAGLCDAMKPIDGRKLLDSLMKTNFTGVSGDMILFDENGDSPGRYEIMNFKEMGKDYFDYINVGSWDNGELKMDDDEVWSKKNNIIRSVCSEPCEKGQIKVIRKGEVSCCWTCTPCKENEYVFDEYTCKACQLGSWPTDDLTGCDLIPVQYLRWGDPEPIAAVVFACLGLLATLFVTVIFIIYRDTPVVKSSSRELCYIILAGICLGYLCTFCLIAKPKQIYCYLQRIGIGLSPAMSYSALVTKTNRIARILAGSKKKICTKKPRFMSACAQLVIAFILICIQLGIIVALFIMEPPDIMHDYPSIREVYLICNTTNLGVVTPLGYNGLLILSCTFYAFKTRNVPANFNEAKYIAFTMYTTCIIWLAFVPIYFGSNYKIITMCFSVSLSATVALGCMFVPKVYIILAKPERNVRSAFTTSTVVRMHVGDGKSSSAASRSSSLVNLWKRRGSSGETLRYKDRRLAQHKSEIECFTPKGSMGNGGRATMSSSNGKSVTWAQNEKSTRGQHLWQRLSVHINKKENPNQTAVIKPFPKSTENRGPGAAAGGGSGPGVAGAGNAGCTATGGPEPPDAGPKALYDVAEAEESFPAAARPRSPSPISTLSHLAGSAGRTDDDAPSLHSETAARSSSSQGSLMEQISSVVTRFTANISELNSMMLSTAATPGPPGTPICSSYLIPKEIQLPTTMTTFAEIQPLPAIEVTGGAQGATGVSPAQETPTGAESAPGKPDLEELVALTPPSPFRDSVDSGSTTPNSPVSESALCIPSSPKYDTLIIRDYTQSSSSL

In general, IC50 refers to the point on the concentration scale where inhibition reaches its midpoint. A low value points to greater potency. What is called melting point is the temperature, or range, at which the solid turns liquid. Compound `Fc1cc2nn(CCC#Cc3ccccn3)nc2cc1F` [Example 153, 5,6-Difluoro-2-(4-(pyridin-2-yl)but-3-ynyl)-2H-benzo[d][1,2,3]triazole] gave a melting point of 131 to 132 °C. This compound registered a half-maximal inhibitory concentration (IC50) on mGluR5 of less than 10 µM.

Take `FCc1cccc(C#CCCn2nc3cc(F)c(F)cc3n2)n1` [Example 154, 5,6-Difluoro-2-(4-(6-(fluoromethyl)pyridin-2-yl)but-3-ynyl)-2H-benzo[d][1,2,3]triazole]: the melting point fell in the range of 104 to 105 °C. Besides, the IC50 at mGluR5 was less than 10 µM.

Turning to `CNc1cccc(C#CCCn2nc3ccccc3n2)n1` [Example 167, 6-(4-(2H-Benzo[d][1,2,3]triazol-2-yl)but-1-ynyl)-N-methylpyridin-2-amine], the melting point was 150 to 154 °C. Besides, the IC50 on mGluR5 is less than 0.5 µM.

`Fc1ccc(-c2cc(CCC#Cc3ccccn3)on2)cc1` [Example 168, 2-(4-(3-(4-Fluorophenyl)isoxazol-5-yl)but-1-ynyl)pyridine] yielded a melting point of 83 to 84 °C. Also, the IC50 on mGluR5 was less than 10 µM.

As to `CC(=O)Nc1cccc(C#CCCn2nc3ccccc3n2)n1` [Example 169, N-(6-(4-(2H-Benzo[d][1,2,3]triazol-2-yl)but-1-ynyl)pyridin-2-yl)acetamide], the melting point fell in the range of 93 to 94 °C. At mGluR5, this compound showed an IC50 of less than 10 µM.

In turn, `CCNc1cccc(C#CCCn2nc3ccccc3n2)n1` [Example 170, 6-(4-(2H-Benzo[d][1,2,3]triazol-2-yl)but-1-ynyl)-N-ethylpyridin-2-amine] had a melting point of 73 to 78 °C. Also, the IC50 on mGluR5 is less than 10 µM.

On to `Fc1ccc(-c2cn(CCC#Cc3ccccn3)nn2)cc1` [Example 179, 2-(4-(4-(4-Fluorophenyl)-1H-1,2,3-triazol-1-yl)but-1-ynyl)pyridine], for which the melting point fell in the range of 120 to 122 °C. Further, at mGluR5, the IC50 is less than 0.5 µM.

The compound `O=c1c2ccccc2ccn1CCC#Cc1ccccn1` [Example 183, 2-(4-(Pyridin-2-yl)but-3-ynyl)isoquinolin-1(2H)-one] showed a melting point of 85 to 90 °C. Also, the IC50 on mGluR5 was less than 0.5 µM.

`O=C(CCC#Cc1ccccn1)Nc1ccccc1F` [Example 186, N-(2-Fluorophenyl)-5-(pyridin-2-yl)pent-4-ynamide] gave a melting point of 82 to 84 °C. Also, the IC50 at mGluR5 is less than 10 µM.

For the compound `O=C(CCC#Cc1ccccn1)Nc1cccc(F)c1` [Example 187, N-(3-Fluorophenyl)-5-(pyridin-2-yl)pent-4-ynamide], the melting point is 110 to 114 °C. Also, the IC50 on mGluR5 was less than 10 µM.

With `Cc1cc(F)ccc1NC(=O)CCC#Cc1ccccn1` [Example 188, N-(4-Fluoro-2-methyl-phenyl)-5-(pyridin-2-yl)pent-4-ynamide], the melting point was 110 to 114 °C. Further, on mGluR5, the IC50 is less than 10 µM.

`Cn1c(CCC#Cc2cccc(CF)n2)nc2ccccc21` [Example 190, 2-(4-(6-(Fluoromethyl)pyridin-2-yl)but-3-ynyl)-1-methyl-1H-benzo[d]imidazole] registered a melting point of 95.3 to 96.3 °C. At mGluR5, the IC50 was less than 0.5 µM.

`Cn1c(CCC#Cc2cccc(CF)n2)nc2c(F)cc(F)cc21` [Example 193, 4,6-Difluoro-2-(4-(6-(fluoromethyl)pyridin-2-yl)but-3-ynyl)-1-methyl-1H-benzo[d]imidazole] had a melting point of 103 to 104 °C. Also, the IC50 at mGluR5 is less than 0.5 µM.

On to `Cc1nc(C#CCCn2nc3ccccc3n2)sc1C` [Example 222, 2-(4-(4,5-Dimethylthiazol-2-yl)but-3-ynyl)-2H-benzo[d][1,2,3]triazole], for which the melting point was in the range of 96 to 98 °C. On mGluR5, this compound had an IC50 of less than 10 µM.

In turn, `FCc1cccc(C#CCCc2cn3cc(F)ccc3n2)n1` [Example 223, 6-Fluoro-2-(4-(6-(fluoromethyl)pyridin-2-yl)but-3-ynyl)H-imidazo[1,2-a]pyridine] registered a melting point of 140 to 141.8 °C. At mGluR5, this compound yielded an IC50 of less than 0.5 µM.

`FCc1nc(C#CCCc2cn3cc(F)ccc3n2)cs1` [Example 224, 6-Fluoro-2-(4-(2-(fluoromethyl)thiazol-4-yl)but-3-ynyl)-imidazo[1,2-a]pyridine]: the melting point fell in the range of 82 to 84 °C. In addition, the IC50 on mGluR5 is less than 0.05 µM.

On to `FCc1cccc(C#CCCc2cn3cccc(OCc4ccccc4)c3n2)n1` [Example 226, 8-(Benzyloxy)-2-(4-(6-(fluoromethyl)pyridin-2-yl)but-3-ynyl)-imidazo[1,2-a]pyridine], for which the melting point lay in the range of 92 to 94 °C. On mGluR5, this compound yielded an IC50 of less than 10 µM.

In turn, `Fc1cc(F)c2nc(CCC#Cc3ccccn3)cn2c1` [Example 228, 6,8-Difluoro-2-(4-(pyridin-2-yl)but-3-ynyl)-imidazo[1,2-a]pyridine] showed a melting point of 130 to 131 °C. The compound also had an IC50 at mGluR5 of less than 0.05 µM.

As for `Fc1cccnc1C#CCCc1nc2ccccc2o1` [Example 230], the melting point is 86 to 88 °C. Also, the IC50 on mGluR5 was less than 10 µM.

Take `Cc1nc(C#CCCc2nc3ccccc3o2)c[nH]1` [Example 231, 2-(4-(2-Methyl-1H-imidazol-4-yl)but-3-ynyl)benzo[d]oxazole]: the melting point lay within 152 to 154 °C. On mGluR5, this compound had an IC50 of less than 10 µM.

Compound `O=C(CCC#Cc1cccc(CF)n1)Nc1ccc(F)cc1` [Example 232, 5-(6-(Fluoromethyl)pyridin-2-yl)-N-(4-fluorophenyl)pent-4-ynamide] had a melting point of 110 °C. The IC50 on mGluR5 was less than 10 µM.

With `Cc1nc(C#CCCc2nc3ccccc3o2)cn1C` [Example 233, 2-(4-(1,2-Dimethyl-1H-imidazol-4-yl)but-3-ynyl)benzo[d]oxazole], the melting point lay within 117 to 119 °C. On mGluR5, this compound had an IC50 of less than 10 µM.

`O=C1c2ccccc2CN1CCC#Cc1ccccn1` [Example 234, 2-(4-(Pyridin-2-yl)but-3-ynyl)isoindolin-1-one] showed a melting point of 94 to 98 °C. The IC50 on mGluR5 is less than 10 µM.

Compound `FCc1cccc(C#CCCc2nc3ccccc3s2)n1` [Example 241, 2-(4-(6-(Fluoromethyl)pyridin-2-yl)but-3-ynyl)benzo[d]thiazole] gave a melting point of 74 to 76 °C. This compound also showed an IC50 on mGluR5 of less than 0.05 µM.

The compound `O=C1c2ccccc2C(=O)N1CCCC#Cc1ccccn1` [Example 242, 2-(5-(Pyridin-2-yl)pent-4-ynyl)isoindoline-1,3-dione] gave a melting point of 127 to 129 °C. On mGluR5, the IC50 was less than 10 µM.

The compound `O=C(CCC#Cc1ccccn1)Nc1ccc(Cl)cc1` [Example 244, N-(4-Chlorophenyl)-5-(pyridin-2-yl)pent-4-ynamide] yielded a melting point of 110 to 111 °C. At mGluR5, the IC50 is less than 10 µM.

Compound `O=C(CCC#Cc1ccccn1)Nc1cccc(Cl)c1` [Example 245, N-(3-Chlorophenyl)-5-(pyridin-2-yl)pent-4-ynamide] showed a melting point of 167.8 to 168.8 °C. Besides, the IC50 at mGluR5 is less than 10 µM.

In the case of `O=C(CCC#Cc1ccccn1)Nc1ccc(F)cc1F` [Example 246, N-(2,4-Difluorophenyl)-5-(pyridin-2-yl)pent-4-ynamide], the melting point lay in the range of 132 to 133.2 °C. Besides, at mGluR5, the IC50 is less than 10 µM.

Take `Fc1ccc(-c2cnn(CCC#Cc3ccccn3)n2)cc1` [Example 249, 2-(4-(4-(4-Fluorophenyl)-2H-1,2,3-triazol-2-yl)but-1-ynyl)pyridine]: the melting point was in the range of 83.5 to 84.5 °C. In addition, the IC50 on mGluR5 is less than 10 µM.

As to `Clc1cccn2cc(CCC#Cc3ccccn3)nc12` [Example 255, 8-Chloro-2-(4-(pyridin-2-yl)but-3-ynyl)-imidazo[1,2-a]pyridine], the melting point fell in the range of 106 to 107 °C. The same compound returned an IC50 at mGluR5 of less than 0.05 µM. In the series on Male C57BL6/j mice, the “marble burying in mice (number of marbles buried vs vehicle)” value is “significantly attenuates marble burying; also recorded: buried significantly fewer marbles than vehicle-treated mice”.
